Measured values reported in ChEMBL document CHEMBL3351233, “Design, stereoselective synthesis, configurational stability and biological activity of 7-chloro-9-(furan-3-yl)-2,3,3a,4-tetrahydro-1H-benzo[e]pyrrolo[2,1-c][1,2,4]thiadiazine 5,5-dioxide” (Bioorg Med Chem, 2014).

Legend:
Rattus norvegicus [1] = species on record: Rattus norvegicus; test: Positive allosteric modulator activity at AMPA receptor in 7 days old Sprague-Dawley rat cerebellar granule neurons assessed as potentiation of 5-Will-evoked current at 10 uM by whole cell patch clamp technique
Rattus norvegicus [2] = species on record: Rattus norvegicus; test: Positive allosteric modulator activity at AMPA receptor in 7 days old Sprague-Dawley rat cerebellar granule neurons assessed as potentiation of kainite-evoked current at 10 uM by whole cell patch clamp technique
[3] = Chemical stability of the compound in water/acetonitrile mobile phase by chromatography; format: physicochemical; settings: buffer

Activity (Rattus norvegicus [1]) [%] | Activity (Rattus norvegicus [2]) [%] | Stability [3] | SMILES
245 | 74 | – | O=S1(=O)N[C@@H]2CCCN2c2c(-c3ccoc3)cc(Cl)cc21
10 | 8 | – | CC1Nc2ccc(Cl)cc2S(=O)(=O)N1 (stereo not drawn)
122 | 12 | – | O=S1(=O)N[C@H]2CCCN2c2c(-c3ccoc3)cc(Cl)cc21
– | 30 | Stable | O=S1(=O)NC2CCCN2c2c(-c3ccoc3)cc(Cl)cc21 (racemic)
